Patent US20150361139A1, “CRYSTALLINE FORM OF LINACLOTIDE” (SANDOZ AG, priority 2013, published 2015)
Where two headings read alike, the source gives them in different places. Peptide text beside a SMILES is read from it.

Tests used:
[1] = 40° C./75% RH, according to U.S. Pat. No. 8,222,201 (WO 2010/059733), cited from earlier work
[2] = Stability tests: solid stored in open vials at 40° C./75% RH, purity by HPLC; assay type: physicochemical; details: for Normalised purity: 40° C./75% RH, open vial
Protocol: The purity of solid samples was measured in area percentage by HPLC analysis using the method reported below:
Approximately 10 mg of material was placed in each vial (ea. 1.5 mL, open, clear glass vial).
Three vials were placed into a beaker which was then stored in a sealed desiccator containing a sodium chloride solution which keeps a constant 75% RH. The desiccator was placed into an oven at 40° C.
One vial at a time was taken out after 7 days, 14 days and 1 month and analysed.
Ovens were temperature monitored using calibrated thermometers with min and max temperatures recorded throughout the stability study.

Structure (SMILES)	Normalised purity ([1]; Day 7)	Normalised purity ([1]; Day 14)	Normalised purity ([1]; Month 1)	Normalised purity ([2]; Day 7)	Normalised purity ([2]; Day 14)	Normalised purity ([2]; Month 1)	Susceptibility to degradation (chemical stability) compared with form alpha ([2]; open atmosphere of 75% RH and 40° C.)
C[C@@H]1NC(=O)[C@@H]2CCCN2C(=O)[C@H](CC(N)=O)NC(=O)[C@@H]2CSSC[C@H](N)C(=O)N[C@H]3CSSC[C@H](NC1=O)C(=O)N[C@@H]([C@@H](C)O)C(=O)NCC(=O)N[C@H](C(=O)N[C@@H](Cc1ccc(O)cc1)C(=O)O)CSSC[C@H](NC(=O)[C@H](Cc1ccc(O)cc1)NC(=O)[C@H](CCC(=O)O)NC3=O)C(=O)N2 [Form Alpha, Linaclotide] (HELM PEPTIDE1{C.C.E.Y.C.C.N.P.A.C.T.G.C.Y}$PEPTIDE1,PEPTIDE1,1:R3-6:R3|PEPTIDE1,PEPTIDE1,2:R3-10:R3|PEPTIDE1,PEPTIDE1,5:R3-13:R3$$$V2.0)	100%	94.8%	91.9%				
C[C@@H]1NC(=O)[C@@H]2CCCN2C(=O)[C@H](CC(N)=O)NC(=O)[C@@H]2CSSC[C@H](N)C(=O)N[C@H]3CSSC[C@H](NC1=O)C(=O)N[C@@H]([C@@H](C)O)C(=O)NCC(=O)N[C@H](C(=O)N[C@@H](Cc1ccc(O)cc1)C(=O)O)CSSC[C@H](NC(=O)[C@H](Cc1ccc(O)cc1)NC(=O)[C@H](CCC(=O)O)NC3=O)C(=O)N2 [Form II, Linaclotide] (HELM PEPTIDE1{C.C.E.Y.C.C.N.P.A.C.T.G.C.Y}$PEPTIDE1,PEPTIDE1,1:R3-6:R3|PEPTIDE1,PEPTIDE1,2:R3-10:R3|PEPTIDE1,PEPTIDE1,5:R3-13:R3$$$V2.0)				100%	100%	98.9%	less susceptible to degradation than form alpha
